Like-named read-outs stand apart in the source and are kept apart here. Positions of bridges follow the written chain, without caps; N, C: chain ends. Residues, ends and D or L forms follow the SMILES beside them.
How the values were obtained:
Human Plasma Kallikrein = Human Plasma Kallikrein (Homo sapiens, UniProt P03952); experiment: Human plasma kallikrein inhibition, Boc-VPR-AMC assay; assay type: biochemical; conditions: read-out: % inhibition of Human Plasma Kallikrein
Method: (§1) All assays were performed on 96-well microplates and the change in relative fluorescence unit (RFU) was measured by fluorescence spectrometer (BMG FLUOstar OPTIMA). The excitation/emission wavelength was 360/460 nm for the substrate Boc-VPR-AMC (Bachem AG, Hauptstrasse, Switzerland) and MeOSuc-AAPV-AMC (Bachem AG, Hauptstrasse, Switzerland) and 485/520 nm for BODIPY_FL casein (Invitrogen, Carlsbad, US). Stock solution of Boc-VPR-AMC was prepared by dissolving the solid in dimethyl sulfoxide to 100 mM and 10 mM for MeOSuc-AAPV. For BODIPY_FL casein, it was reconstituted to 1 mg/mL in 1xPBS. […] The % of inhibition was calculated by the following equation: % of Inhibition=(1−(Sample RFU − Min RFU)/(Max RFU − Min RFU)) X100
(§2) Each inhibition curves were done in triplicates with a minimum of five concentration points fitted. Fitting of each curve was done using SigmaPlot with the Four Parameter Logistic Function and the IC50 calculated. […] All tested compounds were reconstituted to stock solution in water.
(§3) The diluent for all the tested compounds, protein and substrate (except KLK7, which was done with 10 mM Tris pH 7.8) was 1xPBS pH 8.0–8.9. The serially diluted ligands were mixed with diluted bovine trypsin (Sigma, Dorset, U.K.) or activated KLK14, or KLK5, or activated KLK8 or matriptase (catalytic domain only, >90% purity by SDS-PAGE, endotoxin <0.1 ng/μg, R&D, Minneapolis, U.S.) or activated KLK7 or human neutrophil elastase (purified from human plasma, >95% purity by SDS-PAGE, Abcam, Cambridge, U.K.) or porcine pancreatic elastase 1 (Sigma, Dorset, U.K.) or human plasma kallikrein or human plasma plasmin (purified from human plasma, ≥95% purity by SDS-PAGE, BioVision, Milpitas, U.S.). 20μL of the ligand-protein mixture was pipetted to a well of a 96-well microplate in triplicates. The reaction was started by addition of 90–100 μL of the diluted substrate solution (contained 0.05% v/v Brij35) and the plate incubated at 25°C but 37°C for KLK7. RFU reading for each well was taken 6 minutes (trypsin) or 15 minutes (KLK14, KLK5, KLK8, matriptase, human neutrophil elastase, porcine pancreatic elastase 1, plasma kallikrein and plasmin) or 20 hours (KLK7) after substrate addition.

Human Plasma Plasmin = target: T1, Human Plasma Plasmin (Homo sapiens, UniProt P00747); experiment: biochemical
T1 construct: human plasma plasmin (purified from human plasma); purchased BioVision; host or cells: human plasma
Method: as §1, §2, §3

[1] = target: T2, Matriptase (catalytic domain only) (Homo sapiens, UniProt Q9Y5Y6); experiment: biochemical
T2 construct: matriptase (catalytic domain only, >90% purity by SDS-PAGE); purchased R&D
T2 sequence (Q9Y5Y6 615-854 limits assumed): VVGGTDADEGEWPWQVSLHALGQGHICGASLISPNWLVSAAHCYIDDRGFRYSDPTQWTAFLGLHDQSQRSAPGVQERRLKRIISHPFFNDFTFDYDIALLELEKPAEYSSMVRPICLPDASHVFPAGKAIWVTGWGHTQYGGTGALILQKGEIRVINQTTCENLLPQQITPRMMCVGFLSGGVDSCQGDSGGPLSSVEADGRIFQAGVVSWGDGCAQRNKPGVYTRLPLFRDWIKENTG
Method: as §1, §2, §3

[2] = target: T3, Human Neutrophil Elastase (Homo sapiens, UniProt P08246); experiment: Human neutrophil elastase inhibition, MeOSuc-AAPV-AMC assay; assay type: biochemical; conditions: read-out: % inhibition of Human Neutrophil Elastase
T3 construct: human neutrophil elastase (purified from human plasma); purchased Abcam; host or cells: human plasma (so in the source)
T3 sequence (P08246 30-247 limits assumed): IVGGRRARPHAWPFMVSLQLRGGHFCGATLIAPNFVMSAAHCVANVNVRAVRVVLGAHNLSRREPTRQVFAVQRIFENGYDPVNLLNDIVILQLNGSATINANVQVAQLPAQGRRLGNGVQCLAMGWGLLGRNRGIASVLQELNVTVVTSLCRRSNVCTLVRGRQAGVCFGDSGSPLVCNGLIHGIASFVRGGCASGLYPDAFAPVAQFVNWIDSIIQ
Method: as §1, §2, §3

Bovine Trypsin = target: T4, Bovine Trypsin (Bos taurus, UniProt P00760); experiment: biochemical
T4 construct: purchased Sigma
T4 sequence (P00760 24-246): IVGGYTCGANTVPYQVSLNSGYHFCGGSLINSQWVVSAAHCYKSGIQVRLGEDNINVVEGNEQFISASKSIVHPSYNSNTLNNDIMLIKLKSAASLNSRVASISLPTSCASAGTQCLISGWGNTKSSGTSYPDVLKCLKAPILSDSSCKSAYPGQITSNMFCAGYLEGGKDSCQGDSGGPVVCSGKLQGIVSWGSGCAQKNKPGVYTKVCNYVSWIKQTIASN
Method: as §1, with “The excitation/emission wavelength was 360/460 nm for the substrate Boc-VPR-AMC (Bachem AG, Hauptstrasse, Switzerland) and MeOSuc-AAPV-AMC (Bachem AG, Hauptstrasse, Switzerland) and 485/520 nm for BODIPY_FL casein (Invitrogen, Carlsbad, US).” left out
as §2
The diluent for all the tested compounds, protein and substrate (except KLK7, which was done with 10 mM Tris pH 7.8) was 1xPBS pH 8.0–8.9. […] 20μL of the ligand-protein mixture was pipetted to a well of a 96-well microplate in triplicates. The reaction was started by addition of 90–100 μL of the diluted substrate solution (contained 0.05% v/v Brij35) and the plate incubated at 25°C but 37°C for KLK7. RFU reading for each well was taken 6 minutes (trypsin) or 15 minutes (KLK14, KLK5, KLK8, matriptase, human neutrophil elastase, porcine pancreatic elastase 1, plasma kallikrein and plasmin) or 20 hours (KLK7) after substrate addition.

[3] = target: T5, Porcine Pancreatic Elastase 1 (Sus scrofa, UniProt P00772); experiment: Porcine pancreatic elastase 1 inhibition, MeOSuc-AAPV-AMC assay; assay type: biochemical; conditions: read-out: % inhibition of Porcine Pancreatic Elastase 1
T5 construct: purchased Sigma
Method: as §1, §2, §3

[4] = at 10 μM, enzyme 14 nM, Boc-VPR-AMC 42 μM
[5] = enzyme 24 nM, Boc-VPR-AMC 42 μM, 25°C, 15 minutes
[6] = at 10 μM, enzyme 10 nM, MeOSuc-AAPV-AMC 41 μM
[7] = at 10 μM, enzyme 46 nM, MeOSuc-AAPV-AMC 41 μM

Human Plasma Kallikrein, sequence (P03952 20-638): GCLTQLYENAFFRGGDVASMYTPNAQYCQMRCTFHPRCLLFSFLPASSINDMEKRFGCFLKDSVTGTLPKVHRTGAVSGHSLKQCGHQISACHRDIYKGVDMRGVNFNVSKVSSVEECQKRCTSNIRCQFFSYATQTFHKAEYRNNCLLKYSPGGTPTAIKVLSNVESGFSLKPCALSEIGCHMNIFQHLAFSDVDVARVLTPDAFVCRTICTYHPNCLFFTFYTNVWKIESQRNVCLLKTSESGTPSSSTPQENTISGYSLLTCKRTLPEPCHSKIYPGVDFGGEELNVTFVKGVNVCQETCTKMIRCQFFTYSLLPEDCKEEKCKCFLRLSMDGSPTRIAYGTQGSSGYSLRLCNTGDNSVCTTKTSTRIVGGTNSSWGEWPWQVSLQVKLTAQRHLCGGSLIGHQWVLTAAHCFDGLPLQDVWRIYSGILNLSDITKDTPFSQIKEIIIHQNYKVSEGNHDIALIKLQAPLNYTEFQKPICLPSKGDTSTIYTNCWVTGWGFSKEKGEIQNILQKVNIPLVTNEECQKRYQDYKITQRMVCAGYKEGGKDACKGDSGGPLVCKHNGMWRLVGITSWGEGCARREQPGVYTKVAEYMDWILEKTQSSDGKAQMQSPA
T1 sequence (P00747 581-810 limits assumed): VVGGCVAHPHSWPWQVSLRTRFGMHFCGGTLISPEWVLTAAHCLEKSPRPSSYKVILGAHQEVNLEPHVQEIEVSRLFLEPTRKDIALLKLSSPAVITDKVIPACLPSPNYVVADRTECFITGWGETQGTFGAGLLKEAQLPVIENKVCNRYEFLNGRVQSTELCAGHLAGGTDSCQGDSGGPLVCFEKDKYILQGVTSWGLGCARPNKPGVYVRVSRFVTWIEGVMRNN
T1 sequence (P00747 98-580 partner limits assumed): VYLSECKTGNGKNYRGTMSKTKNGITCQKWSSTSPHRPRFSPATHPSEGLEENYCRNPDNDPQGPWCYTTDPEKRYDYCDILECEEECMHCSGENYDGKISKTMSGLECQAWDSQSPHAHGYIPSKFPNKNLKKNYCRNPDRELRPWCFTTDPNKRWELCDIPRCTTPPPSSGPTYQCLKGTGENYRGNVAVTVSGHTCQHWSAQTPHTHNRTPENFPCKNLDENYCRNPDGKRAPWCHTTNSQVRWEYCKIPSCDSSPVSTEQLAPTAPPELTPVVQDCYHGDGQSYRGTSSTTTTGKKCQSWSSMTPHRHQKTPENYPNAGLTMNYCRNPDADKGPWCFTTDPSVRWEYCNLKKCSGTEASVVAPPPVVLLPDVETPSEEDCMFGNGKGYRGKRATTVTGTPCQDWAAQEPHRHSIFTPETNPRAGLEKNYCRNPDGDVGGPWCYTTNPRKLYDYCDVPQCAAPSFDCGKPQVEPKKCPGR
T5 sequence (P00772 27-266): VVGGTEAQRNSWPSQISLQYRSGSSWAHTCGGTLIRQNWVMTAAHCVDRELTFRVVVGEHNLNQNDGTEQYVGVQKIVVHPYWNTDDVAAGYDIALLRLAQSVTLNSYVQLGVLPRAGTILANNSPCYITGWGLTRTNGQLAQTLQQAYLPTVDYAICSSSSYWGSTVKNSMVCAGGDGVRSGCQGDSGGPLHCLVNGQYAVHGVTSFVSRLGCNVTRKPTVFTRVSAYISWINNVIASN

Row | Structure (SMILES) | inhibition at 10 µM (Human Plasma Kallikrein) [%] | IC50 (Human Plasma Plasmin) [nM] | IC50 [1] [nM] | inhibition at 10 µM [2] [%] | IC50 (Bovine Trypsin) [nM] | inhibition at 10 µM [3] [%] | inhibition at 10 µM (Human Plasma Kallikrein; [4]) [%] | IC50 (Human Plasma Plasmin; [5]) [nM] | IC50 ([1]; enzyme 10 nM, Boc-VPR-AMC 21 μM, 25°C, 15 minutes) [nM] | inhibition at 10 µM [2, 6] [%] | IC50 (Bovine Trypsin; enzyme 10 nM, Boc-VPR-AMC 21 μM, 25°C, 6 minutes) [nM] | inhibition at 10 µM [3, 7] [%]
1 | CC[C@H](C)[C@@H]1NC(=O)[C@H](CO)NC(=O)[C@H](CCCCN)NC(=O)[C@H]([C@@H](C)O)NC(=O)[C@@H]2CSSC[C@H](NC(=O)[C@H](Cc3c[nH]cn3)NC(=O)[C@@H]3CCCN3C(=O)[C@@H]3CCCN3C1=O)C(=O)N[C@@H](Cc1c[nH]c3ccccc13)C(=O)N1CCC[C@H]1C(=O)N[C@@H](CC(=O)O)C(=O)NCC(=O)N[C@@H](CCCNC(=N)N)C(=O)N2 [Analogue 2] (cyclo(CTKSIPPHCWPDGR); disulfide 1-9) | 0 | 25 ± 1 | 206 ± 10 | 0 | 20 ± 0.2 | 0 | – | – | – | – | – | –
2 | CC[C@H](C)[C@@H]1NC(=O)[C@H](CO)NC(=O)[C@H](CCCNC(=N)N)NC(=O)[C@H]([C@@H](C)O)NC(=O)[C@@H]2CSSC[C@H](NC(=O)[C@H](Cc3c[nH]cn3)NC(=O)[C@@H]3CCCN3C(=O)[C@@H]3CCCN3C1=O)C(=O)N[C@@H](Cc1c[nH]c3ccccc13)C(=O)N1CCC[C@H]1C(=O)N[C@@H](CC(=O)O)C(=O)NCC(=O)N[C@@H](CCCNC(=N)N)C(=O)N2 [Analogue 6] (cyclo(CTRSIPPHCWPDGR); disulfide 1-9) | 15 | 407 ± 8 | 381 ± 12 | 0 | 23 ± 1 | 0 | – | – | – | – | – | –
3 | CC[C@H](C)[C@@H]1NC(=O)[C@H](CO)NC(=O)[C@H](CCCCN)NC(=O)[C@H]([C@@H](C)O)NC(=O)[C@@H]2CSSC[C@H](NC(=O)[C@H](Cc3c[nH]cn3)NC(=O)[C@@H]3CCCN3C(=O)[C@@H]3CCCN3C1=O)C(=O)N[C@@H](Cc1ccccc1)C(=O)N1CCC[C@H]1C(=O)N[C@@H](CC(=O)O)C(=O)NCC(=O)N[C@@H](CCCNC(=N)N)C(=O)N2 [Analogue I10H] (cyclo(CFPDGRCTKSIPPH); disulfide 1-7) | – | – | – | – | – | – | 0 | 161 ± 6 | 2240 ± 567 | 0 | 46 ± 2 | 0
4 | CC[C@H](C)[C@@H]1NC(=O)[C@@H]2CCCN2C(=O)[C@@H]2CCCN2C(=O)[C@H]([C@@H](C)CC)NC(=O)[C@H](CO)NC(=O)[C@H](CCCCN)NC(=O)[C@H]([C@@H](C)O)NC(=O)[C@@H]2CSSC[C@H](NC1=O)C(=O)N[C@@H](Cc1ccccc1)C(=O)N1CCC[C@H]1C(=O)N[C@@H](CC(=O)O)C(=O)NCC(=O)N[C@@H](CCCNC(=N)N)C(=O)N2 [Native SFTI, Sunflower Trypsin Inhibitor 1, reference compound] | – | – | 1250 ± 57 | – | – | – | 0 | 24 ± 4 | – | 0 | – | 0
